The results in this text go back to EP0760362B1, “DIAMINOMETHYLIDENE DERIVATIVE” (NISSHIN SEIFUN GROUP INC., priority 1994, dated 1995).

This experiment concerns longitudinal muscle sample (including myenteric plexus) prepared from the ileum. The experiment can be described thus: Acetylcholine-release promoting action: contraction of electrically stimulated ileal longitudinal muscle in Magnus' tube. As to conditions: increase ratio in contraction by electrical stimulation, isometrically recorded. Also noted: species or system guinea pig. On the procedure: Acetylcholine-release promoting action of the present compounds in the gastrointestinal tract was investigated according to the following procedure. A longitudinal muscle sample (including myenteric plexus) was prepared from the ileum excised from guinea pig and suspended in Magnus' tube. This sample was perfused in a physiological salt solution and stimulated by the electric current via platinum electrodes. […] This contraction was isometrically recorded. Accordingly, the drug capable of accelerating the release of acetylcholine could enhance the contraction caused by electric stimulation only. Evaluation of the compounds was represented in terms of increase ratio in contraction by electrical stimulation. The tested compounds are shown in terms of the numbers of the corresponding Examples.

Regarding `N#CC(C#N)=C(NCc1ccc(F)cc1)NCC1CN(Cc2ccc(F)cc2)CCO1` (centres unmarked) [Example 13, 2-(p-Fluorobenzylamino)-2-[4-(p-fluorobenzyl)-2-morpholinylmethylamino]-1,1-ethylenedicarbonitrile], the “Contraction increase rate (%)” value is listed as 15.0% (10^-5M) and 4.9% (10^-7M).

Consider `CCOC(=O)C(C#N)=C(NCCOCCNCc1ccc(F)cc1)NC1CCCCC1` [Example 12, Ethyl 3-cyclohexylamino-3-[7-(p-fluorophenyl)-6-aza-3-oxaheptylamino]-2-cyanoacrylate], for which the “Contraction increase rate (%)” value runs as follows: (10^-5M) 7.9%; (10^-7M) 0.8%.

Consider `CNC(=O)NC1CC2COCC(C1)N2Cc1ccc(F)cc1` (stereo not drawn) [Example 20, 1-[endo-9-(p-Fluorobenzyl)-9-aza-3-oxabicyclo[3.3.1]non-7-yl]-3-methylurea], for which, for the setting “10^-7M”, the “Contraction increase rate (%)” value turned out to be 4.2%.

Take `CCOC(=O)C(C#N)=C(NCc1ccccc1)NCC1CN(Cc2ccc(F)cc2)CCO1` (centres unmarked) [Example 6, Ethyl 3-benzylamino-3-[4-(p-fluorobenzyl)-2-morpholinylmethylamino]-2-cyanoacrylate]: the “Contraction increase rate (%)” value (10^-5M) amounted to 20.3% and the “Contraction increase rate (%)” value (10^-7M) is 3.0%.

Take `CCOC(=O)C(C#N)=C(NCC1CN(Cc2ccc(F)cc2)CCO1)Nc1ccccc1` (centres unmarked) [Example 7, Ethyl 3-[4-(p-fluorobenzyl)-2-morpholinylmethylamino]-3-phenylamino-2-cyanoacrylate]: the “Contraction increase rate (%)” value (10^-7M) is recorded as 0.7%.

As to `CNC(NC1CC2COCC(C1)N2CCCOc1ccc(F)cc1)=C(C#N)C#N` (stereo not drawn) [Example 16, 2-[endo-9-[3-(p-Fluorophenoxy)propyl]-9-aza-3-oxabicyclo-[3.3.1]non-7-ylamino]-2-methylamino-1,1-ethylenedicarbonitrile], the “Contraction increase rate (%)” value (10^-7M) worked out at 3.1%.

For `N#CC(C#N)=C(NCC1CN(Cc2ccc(F)cc2)CCO1)NC1CCCCC1` (centres unmarked) [Example 2, 2-Cyclohexylamino-2-[4-(p-fluorobenzyl)-2-morpholinylmethylamino]-1,1-ethylenedicarbonitrile], the “Contraction increase rate (%)” value (10^-5M) stood at 5.3%.

As for `CCOC(=O)C(C#N)=C(NCC(C)C)NCC1CN(Cc2ccc(F)cc2)CCO1` (centres unmarked) [Example 8, Ethyl 3-[4-(p-fluorobenzyl)-2-morpholinylmethylamino]-3-isobutylamino-2-cyanoacrylate], the “Contraction increase rate (%)” value was found to be 32.4% (10^-5M) and 8.5% (10^-7M).

Regarding `CCOC(=O)C(C#N)=C(NCC1CN(Cc2ccc(F)cc2)CCO1)NC1CCCCC1` (centres unmarked) [Example 9, Ethyl 3-cyclohexylamino-3-[4-(p-fluorobenzyl)-2-morpholinylmethylamino]-2-cyanoacrylate], the “Contraction increase rate (%)” value is reported as 31.9% (10^-5M) and 8.7% (10^-7M).

Take `CNC(=C[N+](=O)[O-])NC1CC2COCC(C1)N2Cc1ccc(F)cc1` (stereo not drawn) [Example 17, N-[endo-9-(p-Fluorobenzyl)-9-aza-3-oxabicyclo[3.3.1]non-7-yl]-N'-methyl-2-nitrovinylidene-1,1-diamine]: the “Contraction increase rate (%)” value reads like this: (10^-5M) 5.7%; (10^-7M) 3.2%.

Regarding `CC(C)CNC(NCC1CN(Cc2ccc(F)cc2)CCO1)=C(C#N)C#N` (centres unmarked) [Example 5, 2-[4-(p-Fluorobenzyl)-2-morpholinylmethylamino]-2-isobutylamino-1,1-ethylenedicarbonitrile], the “Contraction increase rate (%)” value (10^-5M) is given as 4.9%.

With `CNC(=O)NCC1CN(Cc2ccc(F)cc2)CCO1` (centres unmarked) [Example 19, 1-[4-(p-Fluorobenzyl)-2-morpholinylmethyl]-3-methylurea], the “Contraction increase rate (%)” value (10^-7M) was 9.8%.

Consider `CCOC(=O)C(C#N)=C(NCC1CN(Cc2ccc(F)cc2)CCO1)Nc1ccc(OC)cc1` (centres unmarked) [Example 10], for which the “Contraction increase rate (%)” value is, setting by setting: (10^-5M) 11.8%; (10^-7M) 9.1%.

Consider `N#CC(C#N)=C(NCc1ccccc1)NCC1CN(Cc2ccc(F)cc2)CCO1` (centres unmarked) [Example 1, 2-Benzylamino-2-[4-(p-fluorobenzyl)-2-morpholinylmethylamino]-1,1-ethylenedicarbonitrile], for which the “Contraction increase rate (%)” value by setting is: (10^-5M) 12.3%; (10^-7M) 3.9%.

As to `CNC(NC1CC2COCC(C1)N2Cc1ccc(F)cc1)=C(C#N)C#N` (stereo not drawn) [Example 15, 2-[endo-9-(p-Fluorobenzyl)-9-aza-3-oxabicyclo[3.3.1]non-7-ylamino]-2-methylamino-1,1-ethylenedicarbonitrile], for the setting “10^-7M”, the “Contraction increase rate (%)” value is given as 3.9%.
